What was measured:
HCMV TB40E = assay: Post adsorption inhibition on HFFs with or without PEG fusion; type: cell-based, Human cytomegalovirus
Procedure: For the analysis of post adsorption inhibition, HFFs were seeded at a density of 40,000 per well on IBIDI plates and incubated for 1 day before infection. Infectious supernatants of TB40E which were produced within 24 hours were cleared by centrifugation. Two identical plates were treated as follows: Cells and virus dilutions were precooled on ice for 15 min before attachment of the virus was allowed on ice for 1 h. The virus containing medium was exchanged by pre-cooled MEM with or without 200 ng/ml PDGFR-alpha-Fc. After 2 h incubation of the inhibitor with the cells on ice, one plate was directly shifted to 37° C., whereas the other cells were treated with pre-warmed 50% PEG (Roche) for 30 sec. The PEG was washed off by five times washing with pre-warmed PBS. Supplied with pre-warmed MEM containing again 200 ng/ml PDGFR-alpha-Fc, the cells were then incubated at 37° C. After 2 h incubation the medium was exchanged on PEG-treated and untreated cells and infection was allowed to proceed for 24 h before infection efficiencies were assessed by immediate early staining. Efficient PEG fusion was controlled visually by detection of syncytia.
HCMV virus particles were adsorbed to HFFs for 1 h on ice. The virus containing medium was then exchanged by medium containing PDGFR-alpha-Fc at a concentration of 200 ng/ml. […]

HSV-1 strain F = assay: Inhibition of HSV infection (specificity control); type: cell-based; details: data not shown
Procedure: Infection efficiencies were determined by immunofluorescence staining for viral proteins. For fixation and permeabilization the cells were incubated with 80% acetone for 5 min. For HCMV infected cells the immediate early proteins pUL122/123 were detected with a mouse monoclonal (clone E13, Argene) and visualized using a Cy3 conjugated goat anti-mouse secondary antibody (Jackson Immuno Research). HSV infected cultures were stained 6 h post infection for ICP0 using a mouse monoclonal (clone 11060, Santa Cruz) and goat anti-mouse AF488 (life technologies). DAPI was used to locate nuclei. Infection rates were determined by counting the number of cell nuclei positive for the respective viral protein, as well as the total number of nuclei per image. For each condition three images were evaluated.

In the case of “PDGFR-alpha-Fc: recombinant Fc-fusion protein of the PDGFR-alpha extracellular domain, obtained from R&D (6765-PR-050)”, the “infectivity of already adsorbed viruses (reduced to)” value (HCMV TB40E; 200 ng/ml added post adsorption, HFFs) is reported as 50%, the “post adsorption inhibition after addition of PEG” value (HCMV TB40E; 200 ng/ml, 50% PEG 30 sec) is reported as “completely rescued” and the “effect on HSV infection” value (HSV-1 strain F) is reported as “not affected”.
